Experimental findings from patent US8337871B2, “Insecticide formulation” (Endura S.p.A., priority 2003, dated 2012) are described below.

The test system of data set [1] is cotton aphid strain (Aphis Gossypii). The data set can be described thus: Mortality assay on cotton aphid (example 19). Particulars: for No. insects alive/no. total insects after 24 hours: in Agral 90, 24 hours. On the procedure:
In a mortality assay conducted as reported in the literature [Gunning R. V. et al., J. Econ. Entomol.
A mortality assay was performed as reported in example 4 on a cotton aphid strain (Aphis Gossypii) using the formulation described in example 10, dissolved in 10 ml Agral 90. Data obtained with fenvalerate dissolved in 10 ml Agral 90, and with placebo (10 ml Agral 90) are shown as a reference. In all tests, concentration values are referred to the amount of active principle.

The subject of data set [2] is Bemisia Tabaci strain (B-Biotype) (Silver leaf whitefly). Description: Mortality assay on Bemisia Tabaci (example 18). Type of data set: in vivo. Particulars: in Agral 90, 48 hours. On the procedure:
(B-Biotype) (Silver leaf whitefly) using the formulation described in example 16, dissolved in 10 ml Agral 90.

Data set [3] relates to Heicoverpa Armigera strain (Cotton Bollworm). Description: Mortality assay on Cotton Bollworm (example 20). The following applies: in Agral 90, 24 hours. The format is in vivo. On the procedure: Data obtained with αcypermethrin dissolved in 10 ml Agral 90, and with a mixture of αcypermethrin/PBO dissolved in 10 ml of Agral 90 (the PBO content being 0.2% with respect to αcypermethrin) are shown as a reference.

[4] abbreviates: concentration 0.01 % w/v active principle.
Where [5] appears, read: concentration 0.1 % w/v active principle.
Setting [6] is: concentration 0.0005 % w/v active principle.
The mark [7] stands for this setting: concentration 0.001 % w/v active principle.

Consider `CC(C)C(C(=O)OC(C#N)c1cccc(Oc2ccccc2)c1)c1ccc(Cl)cc1` (centres unmarked) [fenvalerate], for which, in data set [1] (Aphis gossypii, 24 h), the mortality (in general, the percentage killed) at 0.002 % strength came to 0%; the mortality at 0.02 % strength was found to be 20%; the mortality at 0.2 % strength came out at 40%. In addition, the “No. insects alive/no. total insects after 24 hours” value in data set [1] (concentration 0.002 % w/v active principle) was 10/10. The “No. insects alive/no. total insects after 24 hours” value in data set [1] (concentration 0.02 % w/v active principle) is recorded as 8/10. The “No. insects alive/no. total insects after 24 hours” value in data set [1] (concentration 0.2 % w/v active principle) is listed as 6/10.
As to `CC1(C)C(C=C(Cl)Cl)C1C(=O)OC(C#N)c1cccc(Oc2ccccc2)c1` (centres unmarked) [αcypermethrin], the Mortality % in data set [2] (setting [4]) was determined as 19%; in data set [2] (setting [5]) it was 67%; in data set [3] (setting [6]), 40%; in data set [3] (setting [7]), 60%. For the same compound, the “No. insects alive/no. total insects after 48 hours” value in data set [2] (setting [4]) is recorded as 22/27; in data set [2] (setting [5]), 4/12. In addition, the “No. insects alive/no. total insects after 24 hours” value in data set [3] (setting [6]) is recorded as 6/10; in data set [3] (setting [7]) it was 4/10.
